These results are taken from article PMC3572853 (ACS medicinal chemistry letters, 2012).

One series deals with PADs 1–4. In words: kinact/KI determination with purified enzyme, all PADs tested. The class given is biochemical. To be noted: for kinact/KI: for all of the PADs tested (PADs 1–4).
For another series, the system named is caspase 3 activity. In words: caspase 3 activity in MDA-MB-231 cells. To be noted: MDA-MB-231 cells, 100, 200 and 400 µM, 96 h.
The test system of a further series is Ki-67. The experiment in a line: Ki-67 levels in MDA-MB-231 cells.
The next series has as its system MDA-MB-231 cells. The experiment in a line: cell viability and cell number in MDA-MB-231 cells. In kind it is cell-based. To be noted: MDA-MB-231 cells, 100, 200 and 400 µM, 96 h after administration.
A short description of a further series: maximum tolerable dose. The following applies: mice, per os. In kind it is in vivo.
The next series addresses T1, PAD1 (Homo sapiens, UniProt Q9ULC6).
T1 sequence (Q9ULC6 1-663): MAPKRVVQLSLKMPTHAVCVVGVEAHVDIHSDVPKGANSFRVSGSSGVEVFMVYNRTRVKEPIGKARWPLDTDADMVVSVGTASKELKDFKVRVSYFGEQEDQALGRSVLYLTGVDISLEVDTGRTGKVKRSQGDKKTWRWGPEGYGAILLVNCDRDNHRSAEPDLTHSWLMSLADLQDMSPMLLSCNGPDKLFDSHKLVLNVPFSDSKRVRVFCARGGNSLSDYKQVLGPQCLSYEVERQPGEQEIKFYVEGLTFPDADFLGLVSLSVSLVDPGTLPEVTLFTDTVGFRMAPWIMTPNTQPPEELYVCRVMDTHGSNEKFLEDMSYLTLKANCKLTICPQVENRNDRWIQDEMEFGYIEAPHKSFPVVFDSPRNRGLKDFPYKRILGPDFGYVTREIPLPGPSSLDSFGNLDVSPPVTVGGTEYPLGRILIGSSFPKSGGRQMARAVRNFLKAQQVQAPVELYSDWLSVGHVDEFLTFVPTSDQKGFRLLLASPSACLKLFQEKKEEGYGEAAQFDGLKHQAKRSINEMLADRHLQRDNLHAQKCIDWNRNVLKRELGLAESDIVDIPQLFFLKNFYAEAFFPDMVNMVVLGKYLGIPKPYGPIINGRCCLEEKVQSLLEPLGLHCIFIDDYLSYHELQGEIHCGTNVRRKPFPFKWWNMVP
In words: kinact/KI determination with purified enzyme, PAD1. The class given is biochemical.

The test system of series [1] is collagen induced arthritis (CIA) model. To be noted: cited from earlier work.
Series [2] can be described thus: pharmacokinetics in mice, IV and IP injection. The class given is in vivo. To be noted: 10 mg/kg.
The subject of series [3] is mouse model of ulcerative colitis. The following applies: cited from earlier work.
For series [4] the following is noted: mice, 100 mg/kg daily by i.p. for up to 56 days; cited from earlier work.

Each structure is given as a SMILES string.

Consider `N=C(CCl)NCC[C@@H](NC(=O)c1ccccc1)C(N)=O` [D-Cl2-amidine], for which the kinact/KI (as a rule, the second-order rate constant of inactivation) at PADs 1–4 is under 2.5 M⁻¹ s⁻¹.

On to `N=C(CCl)NCCCC[C@@H](NC(=O)c1ccccc1)C(N)=O` [D-Cl4-amidine], for which, on PADs 1–4, the kinact/KI is under 2.5 M⁻¹ s⁻¹.

Consider `N=C(CCl)NCCC[C@@H](NC(=O)c1ccccc1)C(=O)NCC(=O)O` [D-Cl-amidine-Gly], for which, on PADs 1–4, the kinact/KI is under 3.83 M⁻¹ s⁻¹.

Take `N=C(CCl)NCCC[C@@H](NC(=O)c1ccccc1)C(=O)O` [D-Cl-amidine-OH]: on PADs 1–4, the kinact/KI is under 3.83 M⁻¹ s⁻¹.

`N=C(CCl)NCCC[C@@H](NC(=O)c1ccccc1)C(N)=O` [D-Cl-amidine]: the “caspase 3 activity” value in the series with caspase 3 activity was “significant increase in activity at a concentration of 400 µM”. In addition, in the series on Ki-67, the Ki-67 levels entry was “no significant effect on Ki-67 levels”. Moreover, in the series with MDA-MB-231 cells, the cell number entry was “significantly decreased cell number at a concentration of 400 µM”; the cell viability entry is “significantly decreasing cell viability at concentrations of 200 and 400 µM”. Besides, in “maximum tolerable dose” (varying doses up to 150 mg/kg), the body weight change entry is reported as “maintained healthy weight gains”.

With `N=C(CF)NCCC[C@@H](NC(=O)c1ccccc1)C(N)=O` [D-F-amidine], the inactivation efficiency (kinact/KI) on PAD1 was 20.3 M⁻¹ s⁻¹.

Take `N=C(CF)NCCC[C@@H](NC(=O)c1ccccc1C(=O)O)C(N)=O` [D-o-F-amidine]: the “caspase 3 activity” value in the series with caspase 3 activity was “did not result in an increase in caspase 3 activity”. Further, in the series with MDA-MB-231 cells, the cell number entry is recorded as “only a small decrease in cell number at a concentration of 400 µM” and the cell viability result is reported as “no effect on cell viability”. Moreover, in the series “maximum tolerable dose” (varying doses up to 150 mg/kg), the body weight change result is given as “maintained healthy weight gains”.

As to `N=C(CCl)NCCC[C@H](NC(=O)c1ccccc1)C(N)=O` [L-Cl-amidine, N-α-Benzoyl-N5-(2-Chloro-1-Iminoethyl)-l-Ornithine Amide], the disease severity result in series [1] and in series [3] was “reduces disease severity” throughout. For the same compound, the “time to complete degradation” value in [2] (IP) is at most 4 h; in [2] (IV), at most 2 h. In addition, the “caspase 3 activity” value in the series on caspase 3 activity was “significant increase in activity at a concentration of 400 µM”. Further, the signs of toxicity result in series [4] is “no observable signs of toxicity”. Further, in the series on Ki-67, the Ki-67 levels result is given as “no significant effect on Ki-67 levels”. For the same compound, in the series with MDA-MB-231 cells, the cell number entry is “significantly decreased cell number at a concentration of 400 µM”. The cell viability result in the series on MDA-MB-231 cells was “significantly decreasing cell viability at concentrations of 200 and 400 µM”. For the same compound, the body weight change result in “maximum tolerable dose” (100 mg/kg (group 5), 4 days (96 h)) is recorded as “significant weight loss”; in “maximum tolerable dose” (150 mg/kg (group 6), 4 days (96 h)), “significant weight loss”. Further, the observable toxicity entry in “maximum tolerable dose” (group 6 (150 mg/kg)) was “notably shaking, anxious, hunching and breathing heavily from 1 to 4 h after treatment”.

For the compound `N=C(CCl)NCCCC(NC(=O)c1ccccc1)C(=O)O` [L-Cl-amidine-OH], the “PAD inhibition in words” value in the series with PADs 1–4 (PADs 1–4) is given as “poor PAD inhibitor”.

On to `CC(=O)N[C@H]1[C@@H](O[C@@H]2O[C@H](CC(O)[C@H]3O[C@@H](n4ccc(=O)[nH]c4=O)[C@H](O)[C@@H]3O)[C@H](O)[C@H](O)[C@H]2NC(=O)/C=C/CC(C)C)O[C@H](CO)[C@@H](N)[C@@H]1O` (stereo partly shown) [tunicamycin], for which the Ki-67 levels result in the series with Ki-67 is “a decrease in Ki-67 levels”.
